In test [1] the test system is NC/Nga mouse with induced allergic atopic dermatitis (house dust mite antigen). The test can be described thus: Skin state and number of scratching (itching) in an animal model with allergic atopic dermatitis, extract applied on skin. The class given is in vivo. Particulars: applied on skin once a day for 14 days; itching counted for 20 minutes; p<0.001; FIG. 3. The protocol: On the skin of a 8-week old NC/Nga mouse, 100 mg of an ointment (AD Biostir, Japan) which contains components originating from house dust mite as an antigen causing allergic atopy were applied, total 6 times for 21 days with an interval of 3 to 4 days to induce allergic atopic dermatitis. Seven days after inducing allergic atopic dermatitis, the animal was applied with 1 mg/ml of the pharmaceutical (extract of gardenia fruit (GJE 1%), extract of gardenia fruit from which pigment is removed (GJE-CR 1%), or tacrolimus), once a day for 14 days. Thereafter, using the mouse with induced allergic dermatitis, number of itching for 20 minutes and level of skin damage on ear and back of the animal were examined once a week. All the measurement results are expressed in terms of mean and standard deviation (SD), and a difference among test groups was subjected to a statistical analysis using one-way ANOVA. Statistical significance was recognized when p is less than 0.05 (p<0.05).

The next test relates to inflammatory cells. Nature of the test: Change in inflammatory cell infiltration in ear and back skin tissues, H&E staining. The format is in vivo, NC/Nga mouse. Particulars: skin tissues of back and ear; applied on skin; p<0.01 or p<0.001; FIG. 4. The protocol: (§1) On the skin of a 8-week old NC/Nga mouse, 100 mg of an ointment (AD Biostir, Japan) which contains components originating from house dust mite as an antigen causing allergic atopy were applied, total 6 times for 21 days with an interval of 3 to 4 days to induce allergic atopic dermatitis. Seven days after inducing allergic atopic dermatitis, the animal was applied with 1 mg/ml of the pharmaceutical (extract of gardenia fruit (GJE 1%), extract of gardenia fruit from which pigment is removed (GJE-CR 1%), or tacrolimus), once a day for 14 days. Skin tissues of the ear and back of a mouse with induced allergic dermatitis were collected and, by H&E (hematoxylin and eosin) staining and use of an image measuring program (Solution FL ver 9.1), a change in inflammatory cell infiltration was determined. All the measurement results are expressed in terms of mean and standard deviation (SD), and a difference among test groups was subjected to a statistical analysis using one-way ANOVA. Statistical significance was recognized when p is less than 0.05 (p<0.05).

The subject of another test is mast cells. Nature of the test: Number of mast cells in ear and back skin tissues, toluidine blue staining. The format is in vivo, NC/Nga mouse. The note with it: applied on skin, p<0.01 or p<0.001, FIG. 5. As to the method: as §1, with “toluidine blue (TB)” for “H&E (hematoxylin and eosin)”, “number of mast cells” for “a change in inflammatory cell infiltration”
For test [2], the system named is NC/Nga mouse with induced allergic atopic dermatitis (house dust mite antigen). The test can be described thus: Number of itching in an animal model with allergic atopic dermatitis, extract orally administered. The format is in vivo. The note with it: oral 100 mg/kg or 200 mg/kg once a day for 14 days; itching counted for 20 minutes; p<0.05 to p<0.001; FIG. 6. As to the method: On the skin of a 8-week old NC/Nga mouse, 100 mg of an ointment (AD Biostir, Japan) which contains components originating from house dust mite as an antigen causing allergic atopy were applied, total 6 times for 21 days with an interval of 3 to 4 days to induce allergic atopic dermatitis. On a day of starting the test, 150μl of 4% SDS were applied to the animal, and, after allowing it to stand for 1 hour, 100 mg of the house dust mite antigen were applied to back and both ears of the animal, respectively. Seven days after inducing allergic atopic dermatitis, the animal was orally administered with 100 mg/kg or 200 mg/kg of the pharmaceutical (extract of gardenia fruit or extract of gardenia fruit from which pigment is removed), once a day for 14 days.
Thereafter, using the animal model with induced allergic dermatitis, number of itching in the ear and back of the animal for 20 minutes was examined once a week to compare the effects obtained according to administration of a pharmaceutical. All the measurement results are expressed in terms of mean and standard deviation (SD), and a difference among test groups was subjected to a statistical analysis using one-way ANOVA. Statistical significance was recognized when p is less than 0.05 (p<0.05).

As to `C=CC[C@@H]1/C=C(\C)C[C@H](C)C[C@H](OC)[C@H]2O[C@@](O)(C(=O)C(=O)N3CCCC[C@H]3C(=O)O[C@H](/C(C)=C/[C@@H]3CC[C@@H](O)[C@H](OC)C3)[C@H](C)[C@@H](O)CC1=O)[C@H](C)C[C@@H]2OC` [tacrolimus], the “number of scratching (number of itching) compared to the control group (Control)” value in test [1] is recorded as “decreased with statistical significance”. For the same compound, the “inflammatory cells compared to the control group (Control)” value in the test with inflammatory cells was “decreased with statistical significance”. Also, the “mast cells compared to the control group (Control)” value with mast cells was “decreased with statistical significance”.

Turning to `C[C@]12C=CC(=O)C=C1CC[C@@H]1[C@@H]2[C@@H](O)C[C@@]2(C)[C@H]1CC[C@]2(O)C(=O)CO` [prednisolone], the “number of scratching (number of itching) over days compared to the control group (Control)” value in test [2] was “decreased with statistical significance”.

Source of the values: patent US12186356B2, “Composition for preventing, alleviating, or treating allergic skin disease comprising as active ingredient extract of gardenia fruit from which pigment is removed” (KOREA INSTITUTE OF ORIENTAL MEDICINE, priority 2018, dated 2025).
